Experiment [1] has as its system MC-38 cells. As to the kind of experiment: Evaluation of F-actin morphology (phalloidin staining). In kind it is cell-based, murine. The note with it: without heating (no AMF). An excerpt:
To examine the effect of heating and free radicals on the actin cytoskeleton, actin filaments (F-actin) were stained with fluorescent phalloidin. […] In cells subjected to heating and free radicals but still showing phalloidin staining, the actin filaments were further retracted and more condensed compared with cells under heating only. FIG. 8 illustrates a quantification of MC-38 cells with F-actin structure in the above-described morphological analysis. […] In the cells with phalloidin staining, the actin filaments were further retracted and more condensed compared with the hyperthermia only group.
Evaluation of F-actin morphology: The F-actin morphology of MC-38 cells was evaluated by phalloidin staining. MC-38 cells were seeded in 4-compartment cell culture dishes and cultured overnight. The cells were then treated with 300 μg Fe/mL of IONC-AAPH or IONC at 37° C. or under AMF for 90 min. Four hours after the treatment, the cells were fixed, permeabilized, and blocked as described above. Then the cells were incubated with Alexa Fluor 568-labeled phalloidin for 30 min at room temperature, followed by staining with Hoechst 33342 for 10 min at room temperature. Images were collected using a Nikon Al-Rsi confocal microscope.

Experiment [2] has as its system MC-38 cells. As to the kind of experiment: Lipid peroxidation (MDA level). The experiment is classed as cell-based, murine. Particulars: without AMF. As for the experimental part:
Further, the effect of IONC-AAPH induced heat and free radicals on lipids was quantified by measuring the level of malondialdehyde (MDA). Malondialdehyde (MDA) is one of the final products of lipid peroxidation. MDA is a widely used biomarker of oxidative stress. Accordingly, the extent of lipid peroxidation after IONC-AAPH treatment was measured via MDA levels. FIG. 12 illustrates a quantification of MDA levels in MC-38 cells 2 hours after treatment. It was observed that the MC-38 cells treated with free AAPH, IONC, and IONC-AAPH, respectively, without AMF, as well as cells treated with IONC under AMF had some increase in MDA levels compared with that of control cells, as shown in FIG. 12. The low levels of lipid peroxidation in these groups may have resulted from the free radicals generated from the slow decomposition of AAPH at 37° C., or the IONC induced fenton/fenton-like reaction, or their combination (IONC-AAPH without AMF).
Determination of lipid peroxidation: The lipid peroxidation of MC-38 cells was determined by measuring the production of malondialdehyde (MDA). MC-38 cells cultured in 4-compartment cell culture dishes were treated with 300 μg Fe/mL of IONC-AAPH or IONC at 37° C. or under AMF for 2 h. Two hours post the treatment, the cells were lysed, and the MDA levels were quantified using a fluorescence-based MDA Assay Kit following the manufacturer's instructions.

The subject of experiment [3] is subcutaneous MC-38 tumor. As to the kind of experiment: Tumor killing effect in vivo, subcutaneous MC-38 mouse tumor model. The arrangement: species or system C57BL/6N mice. As for the experimental part: The antitumor activity of IONC-AAPH in vivo was evaluated with a subcutaneous MC-38 mouse tumor model. The subcutaneous tumor was induced by inoculating MC-38 cells into the right flank of respective C57BL/6N mice. The mice were randomly divided into 6 groups (n=3): (i) saline, (ii) AAPH, (iii) IONC, (iv) IONC-AAPH, (v) IONC+AMF, and (vi) IONC-AAPH+AMF. When the tumor volume reached 150-200 mm^3, the mice were intratumorally injected with saline, AAPH (2 mM), IONC (5 mg Fe/mL), and IONC-AAPH (5 mg Fe/mL), respectively. After injection the mice in IONC+AMF and IONC-AAPH+AMF groups were subjected to AMF for 1 h. The temperature of the tumors injected with IONC or IONC-AAPH increased rapidly and reached above 45° C. within 5 min, as measured by an infrared thermal camera.
After applying AMF, the temperature in the tumor was much higher than in other parts of the body. […]
Tumor killing effect of IONC-AAPH in vivo: All animal work was approved by the Institutional Animal Care and Use Committee (IACUC) of Rice University. […] The direct tumor killing effect of IONC-AAPH treatment was evaluated with subcutaneous tumor-bearing mice. […] The temperature in the tumor was measured using a high-resolution infrared (IR) camera (E95, Teledyne FLIR). The tumor size was measured daily with a digital caliper, and the tumor volume was calculated as follow: volume=length×width^2/2. […]

Consider `CC(C)(N=NC(C)(C)C(=N)N)C(=N)N.Cl.Cl` [AAPH, 2,2′-azobis(2-amidinopropane) dihydrochloride], for which the F-actin morphology entry in experiment [1] was “well organized and elongated”. Moreover, the “MDA level vs control cells” value in experiment [2] is reported as “some increase”. Besides, the “tumor tissue damage (H&E, TUNEL)” value in experiment [3] (without AMF) is recorded as “no tumor tissue damage”. The tumor weight result in experiment [3] (without applying AMF) was “only slightly reduced the tumor weight”.
